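All cell lines were grown in 96-well plates and treated with compound for 48 hours. TGI: total growth inhibition.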
What was measured:
Assay in all cases: DTP human tumour cell line panel, 48 h
786-0 renal = system: 786-0 renal
A498 renal = system: A498 renal
A549 NSCLC = system: A549 NSCLC
ACHN renal = system: ACHN renal
BT-549 breast = system: BT-549 breast
CAKI-1 renal = system: CAKI-1 renal
DU-145 prostate = system: DU-145 prostate
EKVX NSCLC = system: EKVX NSCLC
HCT-116 colon = system: HCT-116 colon
HCT-15 colon = system: HCT-15 colon
HL-60(TB) leukemia = system: HL-60(TB) leukemia
HOP-62 NSCLC = system: HOP-62 NSCLC
HOP-92 NSCLC = system: HOP-92 NSCLC
HS 578T breast = system: HS 578T breast
HT29 colon = system: HT29 colon
IGROV1 ovarian = system: IGROV1 ovarian
K-562 leukemia = system: K-562 leukemia
KM12 colon = system: KM12 colon
LOX IMVI melanoma = system: LOX IMVI melanoma
M14 melanoma = system: M14 melanoma
MALME-3M melanoma = system: MALME-3M melanoma
MCF7 breast = system: MCF7 breast
MDA-MB-231 breast = system: MDA-MB-231 breast
MDA-MB-435 = system: MDA-MB-435
MOLT-4 leukemia = system: MOLT-4 leukemia
NCI-H226 lung = system: NCI-H226 lung
NCI-H23 lung = system: NCI-H23 lung
NCI-H460 lung = system: NCI-H460 lung
NCI-H522 lung = system: NCI-H522 lung
NCI/ADR-RES ovarian = system: NCI/ADR-RES ovarian
OVCAR-3 ovarian = system: OVCAR-3 ovarian
OVCAR-4 ovarian = system: OVCAR-4 ovarian
OVCAR-5 ovarian = system: OVCAR-5 ovarian
OVCAR-8 ovarian = system: OVCAR-8 ovarian
PC-3 prostate = system: PC-3 prostate
RPMI-8226 leukemia = system: RPMI-8226 leukemia
RXF 393 renal = system: RXF 393 renal
SF-268 CNS = system: SF-268 CNS
SF-295 CNS = system: SF-295 CNS
SF-539 CNS = system: SF-539 CNS
SK-MEL-2 melanoma = system: SK-MEL-2 melanoma
SK-MEL-28 melanoma = system: SK-MEL-28 melanoma
SK-MEL-5 melanoma = system: SK-MEL-5 melanoma
SN12C renal = system: SN12C renal
SNB-75 CNS = system: SNB-75 CNS
SR leukemia = system: SR leukemia
SW-620 colon = system: SW-620 colon
TK-10 renal = system: TK-10 renal
U251 CNS = system: U251 CNS
UACC-257 melanoma = system: UACC-257 melanoma
UACC-62 melanoma = system: UACC-62 melanoma
UO-31 renal = system: UO-31 renal

Nc1ncnc2c1ncn2Cc1cccc(CCl)c1
TGI (786-0 renal): 34.6 µM | TGI (A498 renal): 30 µM | TGI (A549 NSCLC): 91.4 µM | TGI (ACHN renal): 37.2 µM | TGI (BT-549 breast): 25.8 µM | TGI (CAKI-1 renal): 37 µM | TGI (DU-145 prostate): 27.1 µM | TGI (EKVX NSCLC): 37.1 µM | TGI (HCT-116 colon): 24.6 µM | TGI (HCT-15 colon): 41.7 µM | TGI (HL-60(TB) leukemia): > 100 µM | TGI (HOP-62 NSCLC): 30.5 µM | TGI (HOP-92 NSCLC): 65.5 µM | TGI (HS 578T breast): > 100 µM | TGI (HT29 colon): > 100 µM | TGI (IGROV1 ovarian): 31.8 µM | TGI (K-562 leukemia): > 100 µM | TGI (KM12 colon): 33 µM | TGI (LOX IMVI melanoma): 71.7 µM | TGI (M14 melanoma): 29.7 µM | TGI (MALME-3M melanoma): 37.7 µM | TGI (MCF7 breast): 30.3 µM | TGI (MDA-MB-231 breast): 34 µM | TGI (MDA-MB-435): 44.6 µM | TGI (MOLT-4 leukemia): > 100 µM | TGI (NCI-H226 lung): 33.4 µM | TGI (NCI-H23 lung): 36.5 µM | TGI (NCI-H460 lung): 29.9 µM | TGI (NCI-H522 lung): 32.5 µM | TGI (NCI/ADR-RES ovarian): 50.8 µM | TGI (OVCAR-3 ovarian): 32.3 µM | TGI (OVCAR-4 ovarian): 47.3 µM | TGI (OVCAR-5 ovarian): 32.1 µM | TGI (OVCAR-8 ovarian): 42.9 µM | TGI (PC-3 prostate): 35.5 µM | TGI (RPMI-8226 leukemia): 44.5 µM | TGI (RXF 393 renal): 18.8 µM | TGI (SF-268 CNS): 32.4 µM | TGI (SF-295 CNS): 41.8 µM | TGI (SF-539 CNS): 33.4 µM | TGI (SK-MEL-2 melanoma): 31.9 µM | TGI (SK-MEL-28 melanoma): 51.1 µM | TGI (SK-MEL-5 melanoma): 30.4 µM | TGI (SN12C renal): 29.3 µM | TGI (SNB-75 CNS): > 100 µM | TGI (SR leukemia): 46 µM | TGI (SW-620 colon): 29.9 µM | TGI (TK-10 renal): 34.4 µM | TGI (U251 CNS): 32.5 µM | TGI (UACC-257 melanoma): 30.4 µM | TGI (UACC-62 melanoma): 25.8 µM | TGI (UO-31 renal): 32.5 µM
